Experimental data published in paper PMC3073003, “Peptide-Modified Surfaces for Enzyme Immobilization” (PLoS ONE, 2011).
pKd: −log10 of the molar value. Ends that are not written are not given here.

Legend:
β-galactosidase (β-Gal) [1] = target: T1, β-galactosidase (β-Gal) (Escherichia coli, UniProt P00722); assay type: binding, E. coli; set-up: biotin (chemical label by Sulfo-NHS-biotin on amines, about two per enzyme); purchased Sigma (St. Louis, MO); conditions: for Binding affinity (Norm.): β-Gal bound to surface-modified microwells, 25 nM biotin-labeled β-Gal, ELISA, normalized to amine surface 8
T1 sequence (P00722 2-1024): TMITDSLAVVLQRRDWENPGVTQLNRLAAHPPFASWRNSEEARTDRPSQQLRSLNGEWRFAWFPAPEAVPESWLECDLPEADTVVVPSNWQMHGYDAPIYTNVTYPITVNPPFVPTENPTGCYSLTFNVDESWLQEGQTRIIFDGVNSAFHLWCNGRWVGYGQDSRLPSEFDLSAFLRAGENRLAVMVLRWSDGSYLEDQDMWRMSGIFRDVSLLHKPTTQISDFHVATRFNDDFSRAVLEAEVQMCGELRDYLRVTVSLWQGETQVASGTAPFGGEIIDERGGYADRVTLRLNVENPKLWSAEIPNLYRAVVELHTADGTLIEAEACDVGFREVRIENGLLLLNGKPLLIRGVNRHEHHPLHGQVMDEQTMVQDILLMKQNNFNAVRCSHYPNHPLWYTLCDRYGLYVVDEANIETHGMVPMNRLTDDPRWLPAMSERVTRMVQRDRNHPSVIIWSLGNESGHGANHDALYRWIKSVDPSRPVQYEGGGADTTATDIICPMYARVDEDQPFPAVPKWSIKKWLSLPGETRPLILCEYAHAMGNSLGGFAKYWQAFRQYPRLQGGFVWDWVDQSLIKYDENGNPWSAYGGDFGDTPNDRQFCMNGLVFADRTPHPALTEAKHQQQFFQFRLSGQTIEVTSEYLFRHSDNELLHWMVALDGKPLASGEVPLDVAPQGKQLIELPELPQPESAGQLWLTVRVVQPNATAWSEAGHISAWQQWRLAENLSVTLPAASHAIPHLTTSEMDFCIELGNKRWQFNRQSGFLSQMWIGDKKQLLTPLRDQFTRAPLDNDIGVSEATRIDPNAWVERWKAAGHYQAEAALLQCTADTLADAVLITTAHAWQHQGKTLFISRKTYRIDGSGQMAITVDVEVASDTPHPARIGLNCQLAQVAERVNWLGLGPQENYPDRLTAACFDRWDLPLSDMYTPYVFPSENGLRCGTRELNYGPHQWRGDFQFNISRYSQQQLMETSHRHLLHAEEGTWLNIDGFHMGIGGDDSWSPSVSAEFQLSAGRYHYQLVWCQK
Protocol: (§1) Peptides were conjugated to aminated microwell surfaces through the specific reaction between C-terminal cysteines and the maleimide-activated surfaces, as shown in Figure 1a. […] The microwell plate was then briefly washed with pure water three times. […] The reaction was incubated for 4 hours at room temperature, in the dark. After the conjugation reaction was complete, the microwells were washed for 5 minutes in 1× TBST, three times, followed by three washes in water. To immobilize the enzyme on peptide-modified surfaces, 30 µL of 25 nM biotin-labeled β-Gal was incubated in the peptide-modified microwells for two hours in 10 mM phosphate buffer, pH 7.3 with 100 µM MgCl2 and 0.05% Tween 20 (v/v%), at room temperature. The microwells were washed for 5 minutes in 1× TBST, three times, followed by three washes in phosphate buffer. […] Figures S8–10 in File S1 show the detailed optimization procedures for peptide-modified surfaces.
(§2) First, 30 µL of 2 mg/mL BS^3 prepared in 1× PBS, pH 7.4 was incubated with the aminated microwells for half an hour. Then, the microwells were briefly washed with nanopure water, three times, to remove unreacted BS^3 molecules. Finally, 30 µL of biotin-labeled β-Gal was incubated with the microwells for one hour, which were then washed three times in 1× TBST, followed by three washes in phosphate buffer.
(§3) The activity assay of surface-bound β-Gal was performed on a SpectraMax M5 96-well plate reader (Molecular Device, Sunnyvale, CA) by adding 100 µL of 100 µM RBG into the wells. The relative amount of surface-bound β-Gal was measured using an enzyme linked immunosorbant assay (ELISA). β-Gal was first labeled with biotin. Alkaline phosphatase-conjugated strepavidin (0.4 mg/ml) was diluted at 1∶1000 in 1× PBS, 0.05% (v/v) Tween 20. Next, 30 µL of streptavidin solution was added to the β-Gal-bound wells and incubated for one hour at room temperature. The streptavidin solution was then removed and the plate was washed three times with TBST buffer and three times with TBS buffer. Then, 200 µL of 1 mM PNPP was added to each well. The alkaline phosphatase activity was subsequently measured by reading the absorbance increase at 405 nm on the M5 plate reader. The β-Gal binding level was determined from the activity of alkaline phosphatase-conjugated strepavidin bound to the wells.

β-galactosidase (β-Gal) [2] = target: T1, β-galactosidase (β-Gal); assay type: binding, E. coli; set-up: biotin (chemical label by Sulfo-NHS-biotin on amines, about two per enzyme); purchased Sigma (St. Louis, MO); conditions: for Enzyme binding (Norm.): microarray of 10,000 peptides, selection described in reference [13]
Text: (§4) Peptide microarrays containing 132, 20-mer single-point variants of the YHNN peptide were generated using our established, in-house printing method. […] Synthesized peptides (70% purity) were purchased from Sigma. The last three carboxy-terminal positions of each peptide constituted a glycine-serine-cysteine (GSC) linker, used for conjugating the peptides to amino-silane surfaces through the C-terminal cysteine via a maleimide linker, Sulfo-SMCC (Pierce, Rockford, IL). A Telechem Nanoprint60 was used to spot approximately 500 pL of 1 mg/mL peptide prepared in 1× PBS for each feature on glass slides with 48 Telechem series SMP2 style 946 titanium pins.
(§5) Enzyme assays on the microarrays were performed as described in the previous work. […] The array was incubated with a solution containing 10 nM Alexa™ 647- labeled β-Gal for two hours, allowing the enzyme to bind with peptides on the array surface. After washing off unbound enzymes, a fluorescent substrate analogue (FDG) was mixed with a 5% PVA solution and spin-coated onto the array surface for monitor the enzyme activity. The FDG molecules (substrate) in the PVA layer were converted to fluorescein (product), by the active enzymes bound to specific peptides on the array surface. The fluorescein molecules remained localized because of the PVA viscosity. Both the relative binding level of Alexa™ 647-labeled enzyme and the relative amount of fluorescein produced during the incubation period were determined by dual color scanning. Each array experiment was repeated at least three times under the same conditions for statistical analysis.

β-galactosidase (β-Gal) [3] = target: T1, β-galactosidase (β-Gal); assay type: biochemical, E. coli; set-up: biotin (chemical label by Sulfo-NHS-biotin on amines, about two per enzyme); purchased Sigma (St. Louis, MO); conditions: for Specific activity (Norm.): total bound enzyme activity divided by total binding intensity; for Specific activity (Norm.) / Activity (Norm.): normalized to amine surface 8; for Activity (Norm.): β-Gal immobilized on surface-modified microwells, 25°C
Protocol: Figure 1 Enzyme immobilization on peptide-modified surfaces. (a) The overall process for conjugating peptides to aminated microwells through specific reactions between C-terminal cysteines and maleimide-activated surfaces. (b) Activity of β-Gal immobilized on different surfaces. 25 nM β-Gal is first incubated with modified microwells for one hour and then enzyme activity is measured at 25°C as a function of time using 100 µM Resorufin β-D-galactopyranoside as the substrate. YHNN, QYHH, RVFK, PASM and EFSN represent β-Gal bound to various peptide-modified surfaces (see text). […] AMINE represents enzyme bound noncovalently to an aminated surface. […] Each subunit is labeled with a unique color showing the symmetry of the β-Gal structure. […] The substrate-binding sites of β-Gal are circled with right color (Glu461, Met502, Tyr503 and Glu537) according to reference 16.
as §1, §2, §3

β-galactosidase (β-Gal) [4] = target: T1, β-galactosidase (β-Gal); assay type: biochemical, E. coli; set-up: biotin (chemical label by Sulfo-NHS-biotin on amines, about two per enzyme); purchased Sigma (St. Louis, MO); conditions: for Enzyme activity (Norm.) / Surface specific activity (Norm.): microarray of 10,000 peptides; for Enzyme activity (Norm.): selection described in reference [13]; for Surface specific activity (Norm.): total bound enzyme activity divided by total binding intensity
Text: as §4, §5

β-galactosidase (β-Gal) [5] = target: T1, β-galactosidase (β-Gal); assay type: biochemical, E. coli; set-up: biotin (chemical label by Sulfo-NHS-biotin on amines, about two per enzyme); purchased Sigma (St. Louis, MO); conditions: read-out: apparent Km of β-Gal; peptide-modified iodoacetyl resin or free enzyme, ~150 pM enzyme, RBG 3-400 µM, 25 °C
Protocol: The determination of the enzyme kinetic constants (KM and kcat) of immobilized β-Gal was performed on peptide-modified iodoacetyl polyacrylamide resin (UltraLink, Pierce, 50–80 µm diameter). To modify the bead surface with peptide, peptide solutions were incubated with iodoacetyl resin for one hour in 50 mM Tris buffer, 5 mM EDTA, pH 8.5. The unreacted iodacetyl groups were then capped with 50 mM L-cysteine. The amount of peptide immobilized on a bead surface was determined by comparing the peptide concentration of the unbound fraction (the remaining free peptide concentration after binding to the surface) to the starting concentration through absorbance changes at 280 nm. β-Gal was captured on the peptide-modified beads using the same protocol which immobilized the enzyme in the microwells, above. The amount of bead-immobilized β-Gal was measured by comparing the protein concentration of the unbound fraction to the starting protein concentration, determined at 280 nm. KM and Vmax (and thus kcat, using the total enzyme concentration) of β-Gal immobilized on peptide-modified beads were determined by fitting the activity vs. substrate concentration curves in the GraphPad program using the fitting equation of “Y = Vmax*X/(Km+X)”.
Colored curves: Curve fit determining the Michaelis constants of β-Gal immobilized […]
The enzyme activities are measured as a function of the concentration of […]

β-galactosidase (β-Gal) [6] = target: T1, β-galactosidase (β-Gal); experiment: biochemical; assay type: binding, E. coli; set-up: biotin (chemical label by Sulfo-NHS-biotin on amines, about two per enzyme); purchased Sigma (St. Louis, MO)
Protocol: as §3

β-galactosidase (β-Gal) [7] = target: T1, β-galactosidase (β-Gal)
Protocol: Figure 2 Point-variant screening of a lead peptide, YHNN. β-Gal was bound to a microarray containing 132 YHNN variants and its activity was measured. (a) The activity of bound β-Gal on microarrays as a function of the amount of enzyme bound to a particular variant feature at room temperature. […] All data is normalized to the binding and activity values for the lead peptide, YHNN. (b) Thermal-stability assay. β-Gal was bound to the microarray containing YHNN variants as in (a) at room temperature, followed by incubation in phosphate buffer at 55°C for one hour. Enzyme activity was then assayed at room temperature. […] (c) pH activity range assay. YHNN variant microarrays were bound to β-Gal as in (a) and incubated at room temperature in buffers with pHs ranging from 6 to 9 for one hour and then assayed for activity at the pH of incubation.
The library of single-point variants was also screened for enhanced thermal or pH stability of immobilized β-Gal. For thermal stability screening, enzyme was bound to microarrays containing the 132 single-point variants, at room temperature, and then the arrays were incubated at 55°C for one hour and assayed for activity at room temperature.

[8] = peptide conjugated to aminated microwell
[9] = microarray of 132 single-point variants, room temperature
[10] = peptide-modified aminated microwell

EFSNPTAQVFPDFWMSDGSC was tested, and the “Binding affinity (Norm.)” value (β-galactosidase (β-Gal) [1]) was 0.1±0.01, the “Enzyme binding (Norm.)” value (β-galactosidase (β-Gal) [2]) was 0.4 and the “Specific activity (Norm.)” value (β-galactosidase (β-Gal) [3]) was 0.4±0.1. The “Activity (Norm.)” value (β-galactosidase (β-Gal) [3]; 100 µM RBG) was 0.05±0.01 and the “Enzyme activity (Norm.)” value (β-galactosidase (β-Gal) [4]) was 0.7.
PASMFSYFKKQGYYYKLGSC was tested, and the “Binding affinity (Norm.)” value (β-galactosidase (β-Gal) [1]) was 0.5±0.1, the “Enzyme binding (Norm.)” value (β-galactosidase (β-Gal) [2]) was 63.9 and the “Specific activity (Norm.)” value (β-galactosidase (β-Gal) [3]) was 0.5±0.1. For the same sequence, the “Activity (Norm.)” value (β-galactosidase (β-Gal) [3]; 100 µM RBG) was 0.3±0.06, the “Enzyme activity (Norm.)” value (β-galactosidase (β-Gal) [4]) was 2.3 and the “Surface specific activity (Norm.)” value (β-galactosidase (β-Gal) [4]) was 0.16.
QYHHFMNLKRQGRAQAYGSC [QYHH] was tested, and the Km (β-galactosidase (β-Gal) [5]) was 250 µM and the pKd (β-galactosidase (β-Gal) [6]) was about 8.40.
With RVFKRYKRWLHVSRYYFGSC the “Binding affinity (Norm.)” value (β-galactosidase (β-Gal) [1]) was 0.9±0.05, the “Enzyme binding (Norm.)” value (β-galactosidase (β-Gal) [2]) was 50.3 and the “Specific activity (Norm.)” value (β-galactosidase (β-Gal) [3]) was 0.1±0.01. For the same sequence, the “Activity (Norm.)” value (β-galactosidase (β-Gal) [3]; 100 µM RBG) was 0.1±0.01, the “Enzyme activity (Norm.)” value (β-galactosidase (β-Gal) [4]) was 0.9 and the “Surface specific activity (Norm.)” value (β-galactosidase (β-Gal) [4]) was 0.08.
YHNNPGFRVMQANKLHHGSC [Peptide Q12A] was tested, and the “specific activity increase of bound β-Gal compared to YHNN lead peptide at pH 6” value (β-galactosidase (β-Gal) [7]; microarray incubated one hour at pH 6 and assayed at that pH) was 4.1 fold and the “specific activity increase of bound β-Gal compared to YHNN lead peptide at pH 9” value (β-galactosidase (β-Gal) [7]; microarray incubated one hour at pH 9 and assayed at that pH) was 2.8 fold.
For YHNNPGFRVMQQNKLHHGSC [YHNN], the Km (β-galactosidase (β-Gal) [5]) was about 240 µM and the pKd (β-galactosidase (β-Gal) [6]) was about 8.30.
YHNNPGFRYMQQNKLHHGSC [Peptide V9Y] was tested, and the “binding of immobilized β-Gal relative to YHNN” value (β-galactosidase (β-Gal) [1]; [8]) was about 2 fold, the “binding of β-Gal relative to YHNN lead peptide” value (β-galactosidase (β-Gal) [2]; [9]) was 1.5 fold and the “specific activity of immobilized β-Gal relative to YHNN” value (β-galactosidase (β-Gal) [3]; [8]) was about 2 fold. For the same sequence, the “total bound enzymatic activity relative to the NHS surface” value (β-galactosidase (β-Gal) [3]; [10]) was about 12 fold, the “total bound enzymatic activity relative to the amine surface” value (β-galactosidase (β-Gal) [3]; [10]) was “more than 5 fold” and the “total activity of the bound enzyme relative to YHNN” value (β-galactosidase (β-Gal) [3]; peptide-modified aminated microwell, 100 µM RBG) was about 5 fold. For the same sequence, the “total bound enzyme activity compared with YHNN” value (β-galactosidase (β-Gal) [3]; single-point variants on aminated microwell surfaces) was “improvement” and the “specific activity of bound β-Gal relative to YHNN lead peptide” value (β-galactosidase (β-Gal) [4]; [9]) was about 3 fold.
